The values that follow come from patent US20190134054A1, “ASSOCIATION OF ANTAGONISTS OF THE VASOPRESSIN RECEPTOR AND CALCIMIMETICS, COMPOSITION AND USE THEREOF FOR THE TREATMENT OF POLYCYSTIC KIDNEY” (UNIVERSITA' DEGLI STUDI DI BARI ALDO MORO, priority 2017, published 2019).

The test system of experiment [1] is intracellular calcium levels. The experiment can be described thus: Intracellular calcium levels after tolvaptan. The format is cell-based. The settings on record: treatment with Tolvaptan; CTR=67.06±2.6 nM, P<0.0001. On the procedure:
The treatment with Tolvaptan determines an increase of the intracellular calcium levels (TLV=99.6±4.1 nM; CTR=67.06±2.6 nM, P<0.0001).
(In general: Calcium flux is commonly read through the fluorescence of an indicator in the cells.)

In the next experiment the target is T1, V2 receptor (Canis lupus familiaris, UniProt O77808).
T1 construct: canine kidney cells MDCK endogenously expressing the V2 receptor; endogenous in cells; host or cells: MDCK (canine kidney cells)
T1 sequence (O77808 whole entry): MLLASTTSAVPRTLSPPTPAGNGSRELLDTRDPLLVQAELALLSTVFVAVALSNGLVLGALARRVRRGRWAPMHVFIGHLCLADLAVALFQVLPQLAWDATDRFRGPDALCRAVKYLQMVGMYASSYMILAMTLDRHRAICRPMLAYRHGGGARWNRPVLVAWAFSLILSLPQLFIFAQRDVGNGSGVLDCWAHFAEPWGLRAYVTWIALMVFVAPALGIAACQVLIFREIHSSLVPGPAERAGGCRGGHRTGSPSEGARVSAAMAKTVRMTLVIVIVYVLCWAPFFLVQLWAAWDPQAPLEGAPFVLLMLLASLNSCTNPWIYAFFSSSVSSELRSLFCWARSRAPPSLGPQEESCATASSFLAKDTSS
The experiment can be described thus: dDAVP-induced intracellular cAMP levels (1/netFRET) in MDCK cells. The format is cell-based, canine. The settings on record: dDAVP+TLV vs. dDAVP and CTR. From the text:
The effects of the antagonists of the vasopressin receptor on the concentration of intracellular cAMP have been studied in the canine kidney cells MDCK endogenously expressing the V2 receptor.
Such a reduction of the cAMP levels has been detected through 1/netFRET.
Thus, the treatment with Tolvaptan leads to a reduction of the intracellular cAMP levels. The cAMP levels have been measured through 1/netFRET.
In general terms: cAMP levels reflect the balance of adenylyl cyclase and phosphodiesterase activity.

For experiment [2], the system named is mTOR signaling pathway. The experiment can be described thus: mTOR signaling: S6 ribosomal protein phosphorylation, ciPTEC-PC1KO cells. The conditions noted are these: 10 μM. The format is cell-based, human. From the text:
(§1) The experiments described from Example 1 to Example 5 have been carried out on i) ciPTEC human kidney cells of the proximal tubule isolated from healthy subjects (ciPTECwt), ii) on the same cells silenced for the gene encoding the polycystin 1 (ciPTE-PC1KO) and iii) on ciPTEC cells isolated from patients affected by ADPKD (ciPTEC-PC1Pt).
(§2) In the present example, the activity of mTOR has been studied by detecting the phosphorylation levels of the S6 ribosomal protein.
(§3) By treating the aforementioned cells with the calciomimetic tecalcet at the concentration of 10 μM, the activity of mTOR is reduced, thus decreasing the S6 phosphorylation.

Experiment [3] concerns ciPTEC-PC1KO cells. Description: Intracellular cAMP levels after tecalcet (FRET), ciPTEC-PC1KO cells. The conditions noted are these: 10 μM, 1/netFRET. The class given is cell-based, human.
Description: as §1
(§4) Such cAMP levels have been measured through FRET.
(§5) The cAMP levels have been measured through 1/netFRET.

Experiment [4] relates to ciPTEC-PC1KO cells. The experiment can be described thus: Intracellular calcium levels after tecalcet (Fura 2), ciPTEC-PC1KO cells. The conditions noted are these: 10 μM, n=47. The format is cell-based, human. The protocol: as §1
(§6) Three types of the aforementioned cellular lines have been treated with 10 μM calciomimetic tecalcet, and the result is that the ciPTEC-PC1Pt cells, isolated from patients suffering from the polycystic kidney disease, respond similarly to the ciPTECwt cells to the stimulation with the calciomimetic, thus leading to an increase of intracellular calcium levels (FIG. 4). Such intracellular calcium levels, in the present example, have been detected thanks to the colorant Fura 2 that is sensitive to calcium.
(§7) The ciPTEC-PC1Pt cells respond similarly to the ciPTECwt cells to the stimulation with NPS-R568 calciomimetic, also called tecalcet, at a concentration of 10 μM. […] The intracellular calcium levels have been measured through the colorant Fura 2 that is sensitive to calcium.

The subject of another experiment is ciPTECwt cells. Description: Intracellular calcium levels after tecalcet (Fura 2), ciPTECwt cells. The class given is cell-based, human. The conditions noted are these: 10 μM, n=40. The protocol:
as §1, §6, §7

Experiment [5] deals with ciPTEC-PC1Pt cells. Description: Intracellular calcium levels after tecalcet (Fura 2), ciPTEC-PC1Pt cells. The format is cell-based, human. The conditions noted are these: 10 μM, ciPTEC-PC1Pt cells (ADPKD patients), n=30. The protocol:
as §1, §6, §7

For experiment [6], the system named is ciPTEC-PC1Pt cells. The experiment can be described thus: Intracellular cAMP levels after tecalcet (FRET), ciPTEC-PC1Pt cells. The settings on record: 10 μM, 1/netFRET. The format is cell-based, human.
Description: as §1, §4, §5

Experiment [7] relates to mTOR signaling pathway. The experiment can be described thus: mTOR signaling: S6 ribosomal protein phosphorylation, ciPTEC-PC1Pt cells. The class given is cell-based, human. The conditions noted are these: 10 μM.
Description: as §1, §2, §3

The structures appear in SMILES notation. “Also recorded” adds a separate entry of the source.

`Cc1ccccc1C(=O)Nc1ccc(C(=O)N2CCCC(O)c3cc(Cl)ccc32)c(C)c1` (stereo not drawn) [Tolvaptan]: the intracellular calcium levels in [1] turned out to be 99.6 ± 4.1 nM. The “cAMP levels induced by vasopressin (dDAVP)” value at V2 receptor is “comparable to those of the control”.
In the case of `COc1cccc([C@@H](C)NCCCc2ccccc2Cl)c1` [tecalcet], the results for the “S6 phosphorylation levels (mTOR activity)” value in the experiment on mTOR signaling pathway [2] and in the experiment with mTOR signaling pathway [7] were “comparable levels to those observed in the ciPTECwt cells; also recorded: reduces the phosphorylation of S6” and “reduces the phosphorylation of S6”, respectively. Besides, the “basal intracellular cAMP levels” value in the experiment on ciPTEC-PC1KO cells [3] and in the experiment with ciPTEC-PC1Pt cells [6] was “reduces the basal cAMP levels” each time. For the same compound, the results for the “intracellular calcium levels, response vs. ATP 100%” value in the experiment on ciPTEC-PC1KO cells [4], with ciPTECwt cells and in the experiment on ciPTEC-PC1Pt cells [5] were 24.32±2.59%, 90.68±2.47% and 29.51±3.93%, respectively.
